Measured values from patent US20230055705A1, “SUBSTITUTED THIOPHENE CARBOXAMIDES AND DERIVATIVES THEREOF” (Bayer Aktiengesellschaft, priority 2019, published 2023).

Test system: Peronospora parasitica
Assay: In vivo preventive test on Peronospora parasitica (Crucifer downy mildew)
Conditions: Hyaloperonospora parasitica, in Brassica oleracea, 120 h, 31 ppm of active ingredient, cabbage, evaluated 5 days after inoculation, read-out: efficacy
Method: (§1) The tested active ingredients were prepared by homogenization in a mixture of acetone/Dimethyl sulfoxide/Tween®, and then diluted with water to obtain the desired active material concentration. The young plants of cabbage were treated by spraying the active ingredient prepared as described above. Control plants were treated only with an aqueous solution of acetone/Dimethyl sulfoxide/Tween®.
After 72 hours, the plants were contaminated by spraying the leaves with an aqueous suspension of Peronospora parasitica spores. The contaminated cabbage plants were incubated for 5 days at 20° C. and at 100% relative humidity.
The test was evaluated 5 days after the inoculation. 0% means an efficacy which corresponds to that of the control plants while an efficacy of 100% means that no disease was observed.
Compounds CMP2 and CMP3 were tested in an in vivo preventive test on Peronospora parasitica (Crucifer downy mildew) in the same conditions as described in Example G.

Row | SMILES | pest or weed control at 31 ppm
1 | CCOC(=O)C(COC)NC(=O)c1sc(Cl)c(Cl)c1Cl (centres unmarked) [I.059] | 80 to 89%
2 | CCNC(=O)[C@@H](NC(=O)c1sc(Cl)c(Cl)c1Cl)C(C)C [I.090] | 90 to 100%

Same assay, conditions: Hyaloperonospora parasitica, in Brassica oleracea, 120 h, 125 ppm of active ingredient, cabbage, evaluated 5 days after inoculation, read-out: efficacy

Row | SMILES | pest or weed control at 125 ppm
3 | CCOC(=O)C(COC)NC(=O)c1sc(Cl)c(Cl)c1Cl (centres unmarked) [I.059] | 70 to 79%
4 | CCNC(=O)[C@@H](NC(=O)c1sc(Cl)c(Cl)c1Cl)C(C)C [I.090] | 90 to 100%

Same assay, conditions: Hyaloperonospora parasitica, in Brassica oleracea, 120 h, 500 ppm of active ingredient, cabbage, evaluated 5 days after inoculation, read-out: efficacy

Row | SMILES | pest or weed control at 500 ppm
5 | CCOC(=O)C(COC)NC(=O)c1sc(Cl)c(Cl)c1Cl (centres unmarked) [I.059] | 90 to 100%
6 | CCNC(=O)[C@@H](NC(=O)c1sc(Cl)c(Cl)c1Cl)C(C)C [I.090] | 90 to 100%

Test system: Pseudomonas syringae pv. tomato
Assay: Pseudomonas syringae pv. tomato in vitro cell test
Type: cell-based
Conditions: 20 ppm of active ingredient, 24 h incubation, read-out: efficacy (inhibition of bacteria growth)
Method: Culture medium: LB broth medium (Luria Broth Miller) Sigma
Inoculum: bacteria suspension
Compounds were solubilized in DMSO and the solution used to prepare the required range of concentrations. The final concentration of DMSO used in the assay was 1%.
(§2) Inoculum was prepared from a pre-culture of bacteria grown in liquid medium and diluted to the desired optical density (OD).
(§3) Compounds were evaluated for their ability to inhibit bacteria growth in liquid culture assay. The compounds were added in the desired concentrations to culture medium containing the bacteria suspension. After 24 h of incubation, the efficacy of compounds was determined by spectrometric measurement of bacteria growth. Inhibition was determined by comparing the absorbance values in wells containing the compounds with the absorbance in control wells without active ingredients.

Row | SMILES | inhibition at 20 ppm
7 | CCOC(=O)C(COC)NC(=O)c1sc(Cl)c(Cl)c1Cl (centres unmarked) [I.059] | ≤ 30%

Test system: Xanthomonas campestris pv. campestris
Assay: In vivo preventive test on Xanthomonas campestris pv. campestris (black rot on cabbage)
Conditions: 31 ppm of active ingredient, evaluated 8 or 10 days after inoculation, read-out: efficacy
Method: The tested active ingredients were prepared by homogenization in a mixture of acetone/Dimethyl sulfoxide/Tween®, and then diluted with water to obtain the desired active material concentration.
The young plants of cabbage were treated by spraying the active ingredient prepared as described above. Control plants were treated only with an aqueous solution of acetone/Dimethyl sulfoxide/Tween®.
After 72 hours, the plants were contaminated by spraying the leaves with an aqueous bacteria suspension of Xanthomonas campestris pv. campestris. The contaminated cabbage plants were incubated for 8 or 10 days at 27° C. at 95% relative humidity.
The test was evaluated 8 or 10 days after the inoculation. 0% means an efficacy which corresponds to that of the control plants while an efficacy of 100% means that no disease was observed. […]
Compounds CMP1, CMP2, CMP3 and CMP4 were tested in an in vivo preventive test on Xanthomonas campestris pv. campestris (black rot on cabbage) in the same conditions as described in Example H.

Row | SMILES | pest or weed control at 31 ppm
8 | CCOC(=O)C(COC)NC(=O)c1sc(Cl)c(Cl)c1Cl (centres unmarked) [I.059] | 90 to 100%
9 | CCNC(=O)[C@@H](NC(=O)c1sc(Cl)c(Cl)c1Cl)C(C)C [I.090] | 70 to 79%

Same assay, conditions: 125 ppm of active ingredient, evaluated 8 or 10 days after inoculation, read-out: efficacy

Row | SMILES | pest or weed control at 125 ppm
10 | CCOC(=O)C(COC)NC(=O)c1sc(Cl)c(Cl)c1Cl (centres unmarked) [I.059] | 70%

Test system: Xanthomonas campestris pv. campestris
Assay: Xanthomonas campestris pv. campestris in vitro cell test
Type: cell-based
Conditions: 20 ppm of active ingredient, 24 h incubation, read-out: efficacy (inhibition of bacteria growth)
Method: • Solvent: DMSO • Culture medium: LB broth medium (Luria Broth Miller) Sigma • Inoculum: bacteria suspension
Compounds were solubilized in DMSO and the solution used to prepare the required range of concentrations. The final concentration of DMSO used in the assay was ≤1%.
as §2, §3

Row | SMILES | inhibition at 20 ppm
11 | CCOC(=O)C(COC)NC(=O)c1sc(Cl)c(Cl)c1Cl (centres unmarked) [I.059] | ≤ 30%

Test system: not listed separately
Assay: LogP by HPLC on reversed phase columns (EEC directive 79/831 Annex V.A8)
Type: physicochemical
Conditions: reversed phase HPLC columns, method [a]: LC-UV, in an acidic range, with 0.1% formic acid in water and acetonitrile as eluent (linear gradient from 10% to 95% acetonitrile)
Method: In the above tables, measurement of LogP values was performed according to EEC directive 79/831 Annex V.A8 by HPLC (High Performance Liquid Chromatography) on reversed phase columns with the following methods: • ^[a]
Calibration was done with straight-chain alkan2-ones (with 3 to 16 carbon atoms) with known LogP values (measurement of LogP values using retention times with linear interpolation between successive alkanones). Lambda-max-values were determined using UV-spectra from 200 nm to 400 nm and the peak values of the chromatographic signals.

Row | SMILES | chromatographic logP
12 | CCOC(=O)C(COC)NC(=O)c1sc(Cl)c(Cl)c1Cl (centres unmarked) [I.059] | 3.83

Test system: Uromyces appendiculatus
Assay: In vivo preventive test on Uromyces appendiculatus (bean rust)
Conditions: 240 h, 125 ppm of active ingredient, evaluated 10 days after inoculation, read-out: efficacy
Method: as §1, with “bean” for “cabbage”
(§4) After 72 hours, the plants were contaminated by spraying the leaves with an aqueous suspension of Uromyces appendiculatus spores. The contaminated bean plants were incubated for 24 hours at 20° C. and at 100% relative humidity and then for 9 days at 20° C. and at 70-80% relative humidity. The test was evaluated 10 days after the inoculation. 0% means an efficacy which corresponds to that of the control plants while an efficacy of 100% means that no disease was observed.
Compounds CMP5 and CMP6 were tested in an in vivo preventive test on Uromyces appendiculatus (bean rust) in the same conditions as described in Example I.

Row | SMILES | pest or weed control at 125 ppm
13 | CCOC(=O)C(COC)NC(=O)c1sc(Cl)c(Cl)c1Cl (centres unmarked) [I.059] | 90 to 100%
14 | CCNC(=O)[C@@H](NC(=O)c1sc(Cl)c(Cl)c1Cl)C(C)C [I.090] | 80 to 89%

Same assay, conditions: 240 h, 500 ppm of active ingredient, evaluated 10 days after inoculation, read-out: efficacy

Row | SMILES | pest or weed control at 500 ppm
15 | CCOC(=O)C(COC)NC(=O)c1sc(Cl)c(Cl)c1Cl (centres unmarked) [I.059] | 90 to 100%
16 | CCNC(=O)[C@@H](NC(=O)c1sc(Cl)c(Cl)c1Cl)C(C)C [I.090] | 90 to 100%

Test system: Colletotrichum lindemuthianum
Assay: In vivo preventive test on Colletotrichum lindemuthianum (Antrachnose on bean)
Conditions: 144 h, 31 ppm of active ingredient, inoculation 72 h after spraying, evaluated 6 days after inoculation, read-out: efficacy
Method: as §1, with “bean” for “cabbage”
as §4, with “of Colletotrichum lindemuthianum” for “of Uromyces appendiculatus”, “for 5” for “for 9”, “at 90%” for “at 70-80%”, “evaluated 6” for “evaluated 10”
Compound CMP1 was tested in an in vivo preventive test on Colletotrichum lindemuthianum (Antrachnose on bean) in the same conditions as described in Example F.

Row | SMILES | pest or weed control at 31 ppm
17 | CCOC(=O)C(COC)NC(=O)c1sc(Cl)c(Cl)c1Cl (centres unmarked) [I.059] | 70 to 79%

Same assay, conditions: 144 h, 500 ppm of active ingredient, inoculation 72 h after spraying, evaluated 6 days after inoculation, read-out: efficacy

Row | SMILES | pest or weed control at 500 ppm
18 | CCOC(=O)C(COC)NC(=O)c1sc(Cl)c(Cl)c1Cl (centres unmarked) [I.059] | 90 to 100%
19 | CCNC(=O)[C@@H](NC(=O)c1sc(Cl)c(Cl)c1Cl)C(C)C [I.090] | 90 to 100%

Test system: Pseudomonas syringae pv. tomato
Assay: In vivo preventive test on Pseudomonas syringae pv. tomato (bacterial speck on tomato)
Conditions: 31 ppm of active ingredient, evaluated 5 or 6 days after inoculation, read-out: efficacy
Method: as §1, with “tomato” for “cabbage”
After 72 hours, the plants were contaminated by spraying the leaves with an aqueous bacteria suspension of Pseudomonas syringae pv. tomato. The contaminated tomato plants were incubated for 4 days in saturated atmosphere at 22° C. day/20° C. night—70% HR and then for 1 or 2 days at 22° C. day/20° C. night at 70-80% relative humidity.
The test was evaluated 5 or 6 days after the inoculation. 0% means an efficacy which corresponds to that of the control plants while an efficacy of 100% means that no disease was observed.
Compounds CMP1 and CMP4 were tested in an in vivo preventive test on Pseudomonas syringae pv. tomato (bacterial speck on tomato) in the same conditions as described in Example J.

Row | SMILES | pest or weed control at 31 ppm
20 | CCNC(=O)[C@@H](NC(=O)c1sc(Cl)c(Cl)c1Cl)C(C)C [I.090] | 90 to 100%

Same assay, conditions: 500 ppm of active ingredient, evaluated 5 or 6 days after inoculation, read-out: efficacy

Row | SMILES | pest or weed control at 500 ppm
21 | CCOC(=O)C(COC)NC(=O)c1sc(Cl)c(Cl)c1Cl (centres unmarked) [I.059] | 90 to 100%
22 | CCNC(=O)[C@@H](NC(=O)c1sc(Cl)c(Cl)c1Cl)C(C)C [I.090] | 90 to 100%

Test system: salicylate responsive promoter sequence of the PR1 (pathogenesis-related protein I) gene (AT2G14610)
Assay: Induction of defense gene expression in Arabidopsis thaliana (PR1 promoter-GFP reporter plants)
Type: in vivo
Conditions: Arabidopsis thaliana, 72 h; 75 ppm of compound; 3rd day after spraying; mock treated leaves set as 1.00; read-out: relative fluorescence value
Method: Arabidopsis thaliana reporter plants containing the coding sequence of a green fluorescent protein (GFP) linked to the salicylate responsive promoter sequence of the PR1 (pathogenesis-related protein I) gene (AT2G14610) were grown for five days and then sprayed with compounds. On the 3rd day after spraying, plant fluorescence was assessed with a MacroFluo instrument from Leica Microsystems (Wetzlar, Germany). Fluorescences were quantified with the Meta-Morph Microscopy Automation & Image Analysis Software (Molecular Devices, Sunnyvale, Calif., United States). Background fluorescence in mock treated leaves was set as 1.00.

Row | SMILES | fold induction at 75 ppm
23 | CCOC(=O)C(COC)NC(=O)c1sc(Cl)c(Cl)c1Cl (centres unmarked) [I.059] | > 2
24 | CCNC(=O)[C@@H](NC(=O)c1sc(Cl)c(Cl)c1Cl)C(C)C [I.090] | > 2

Same assay, conditions: Arabidopsis thaliana, 72 h; 300 ppm; 3rd day after spraying; mock treated leaves set as 1.00; read-out: relative fluorescence value

Row | SMILES | fold induction at 300 ppm
25 | CCOC(=O)C(COC)NC(=O)c1sc(Cl)c(Cl)c1Cl (centres unmarked) [I.059] | > 2
26 | CCNC(=O)[C@@H](NC(=O)c1sc(Cl)c(Cl)c1Cl)C(C)C [I.090] | > 2
